≈ marks a conversion by molar mass, not a printed value. Each block holds one molecule with its values, some of them ahead of it. Calls of active or inactive are those of the source. The rule behind the calls is not given here.
Columns and labels:
[1] = Plasma protein binding in human assessed as free fraction by equilibrium dialysis; type: ADME, cell-free
[2] = Volume of distribution at steady state in mouse at 1 mg/kg, po or 0.5 mg/kg, iv; type: ADME, organism-based; details: in vivo
[3] = Solubility in FaSSIF at pH 6.5; type: ADME
[4] = Apparent permeability in human Caco-2 cells at 10 uM; type: ADME, cell-based
[5] = Plasma protein binding in mouse assessed as free fraction by equilibrium dialysis; type: ADME, cell-free
[6] = Plasma protein binding in rat assessed as free fraction by equilibrium dialysis; type: ADME, cell-free
[7] = Intrinsic clearance in mouse hepatocytes measured per 10^6 cells; type: ADME, cell-based, Hepatocyte; details: read-out: CLH
cells = details: Homo sapiens, HCT116-MTAP null, 120 h, read-out: pGI50 (converted)
HCT116-MTAP null = test: Antitumor activity against human HCT116-MTAP null cells xenografted in NCR nude mouse assessed as reduction in tumor volume at 20 mg/kg, po administered twice daily for 24 days and measured twice weekly; type: functional, organism-based; details: time 24.0 day
[8] = Half life in mouse at 1 mg/kg, po or 0.5 mg/kg, iv; type: ADME, organism-based; details: in vivo
[9] = Plasma protein binding in dog assessed as free fraction by equilibrium dialysis; type: ADME, cell-free, Canis lupus familiaris
animal or person [10] = details: Mus musculus, NCR nude, HCT116-MTAP null, po, read-out: INH
[11] = Solubility in simulated gastric fluid at pH 1; type: ADME
animal or person [12] = details: Mus musculus, NCR nude, HCT116-MTAP null, po, read-out: INH; remark: listed apart in the source
[13] = Half life in rat at 1 mg/kg, po or 0.5 mg/kg, iv; type: ADME, organism-based; details: in vivo
[14] = Volume of distribution at steady state in rat at 1 mg/kg, po or 0.5 mg/kg, iv; type: ADME, organism-based; details: in vivo
[15] = Metabolic stability in rat hepatocytes assessed as intrinsic clearance measured per 10^6 cells; type: ADME, cell-based, Hepatocyte
[16] = Lipophilicity, logD of compound at pH 7.4 by shake flask method; type: physicochemical; details: buffer
[17] = Unbound fraction in nude mouse plasma at 30 mg/kg, po measured after 24 hrs; type: ADME, organism-based
[18] = Oral bioavailability in rat at 1 mg/kg; type: ADME, organism-based; details: in vivo
[19] = Oral bioavailability in mouse at 1 mg/kg; type: ADME, organism-based; details: in vivo
[20] = Solubility in FeSSIF at pH 5; type: ADME
[21] = Unbound brain-to-plasma concentration ratio in rat; type: ADME, cell-free; details: read-out: K(p,uu,brain)
[22] = Aqueous solubility in phosphate buffer at pH 7.4 measured after 24 hrs; type: physicochemical
NCI-H441 = test: Antiproliferative activity against human NCI-H441 cells harboring MTAP knockout; type: functional, cell-based
HCT-116 = test: cells; details: Homo sapiens, HCT-116, 120 h, read-out: pGI50 (converted)
[23] = Metabolic stability in human liver microsomes assessed as intrinsic clearance; type: ADME, Microsome
[24] = biological target: S-adenosylmethionine synthase isoform type-2 (Homo sapiens, UniProt P31153); test: Binding affinity to MAT2a (unknown origin) assessed as dissociation constant by ITC analysis
PXR = biological target: T1, PXR (Homo sapiens, UniProt O75469); test: Activation of human PXR assessed as fold change at 10 uM relative to DMSO; type: toxicity; details: read-out: FC
T1 sequence (O75469 whole entry): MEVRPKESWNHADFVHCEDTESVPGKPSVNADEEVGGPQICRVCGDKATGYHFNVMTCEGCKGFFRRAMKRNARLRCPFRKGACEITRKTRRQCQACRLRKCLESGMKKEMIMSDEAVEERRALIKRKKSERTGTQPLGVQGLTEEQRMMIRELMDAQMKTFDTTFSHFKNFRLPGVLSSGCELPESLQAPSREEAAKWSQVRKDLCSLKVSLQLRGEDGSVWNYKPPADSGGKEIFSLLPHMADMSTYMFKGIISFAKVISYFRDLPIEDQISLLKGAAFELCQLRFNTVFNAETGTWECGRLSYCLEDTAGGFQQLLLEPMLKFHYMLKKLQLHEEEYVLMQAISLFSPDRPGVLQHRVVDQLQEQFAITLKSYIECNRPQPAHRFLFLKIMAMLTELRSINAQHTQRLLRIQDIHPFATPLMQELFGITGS

Sequence of S-adenosylmethionine synthase isoform type-2 (P31153 whole entry, canonical isoform): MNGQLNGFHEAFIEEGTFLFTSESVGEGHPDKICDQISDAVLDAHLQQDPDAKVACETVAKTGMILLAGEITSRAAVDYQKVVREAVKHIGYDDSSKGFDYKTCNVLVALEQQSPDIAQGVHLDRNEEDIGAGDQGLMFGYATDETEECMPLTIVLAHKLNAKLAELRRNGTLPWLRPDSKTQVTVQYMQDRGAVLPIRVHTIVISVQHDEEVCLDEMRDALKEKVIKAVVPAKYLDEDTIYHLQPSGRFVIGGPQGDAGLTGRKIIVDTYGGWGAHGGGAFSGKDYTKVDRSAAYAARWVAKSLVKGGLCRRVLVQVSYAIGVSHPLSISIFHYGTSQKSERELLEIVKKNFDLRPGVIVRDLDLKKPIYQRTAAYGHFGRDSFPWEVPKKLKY

- hepatocyte CLint [15]: < 2 µL/min/1e6 cells
- logD [16]: 3.5
SMILES: Cc1nc2ccc(-c3cc4[nH]nc(C5CC5)c4n(-c4ccc(OC(F)F)cc4)c3=O)cc2n1C

- GI50 (HCT-116): 1580 nM
SMILES: COc1ccc(-c2c(Nc3ccccn3)[nH]c3c(C4=CCCCC4)c(-c4ccccc4)nn3c2=O)cc1
- GI50 (cells): 501 nM

- hepatocyte CLint [15]: 3 µL/min/1e6 cells
- logD [16]: 2.8
SMILES: COc1ccc(-n2c(=O)c(-c3ccc4nn(C)cc4c3)cc3[nH]nc(C4CC4)c32)cc1

- hepatocyte CLint [15]: 25 µL/min/1e6 cells
- logD [16]: 3.3
SMILES: Cc1ccc(-n2c(=O)c(-c3ccc4nn(C)cc4c3)cc3[nH]nc(C4CC4)c32)cc1

- hepatocyte CLint [15]: 14 µL/min/1e6 cells
- logD [16]: 4
SMILES: O=c1c(-c2ccccc2)cc2[nH]nc(C3CC3)c2n1-c1ccc(OC(F)F)cc1

- hepatocyte CLint [15]: < 1 µL/min/1e6 cells
- logD [16]: 2.3
SMILES: CNc1ccc(-n2c(=O)c(-c3ccc4nn(C)cc4c3)cc3[nH]nc(C4CC4)c32)cn1

- microsomal CLint [23]: < 3 µL/min/mg
- hepatocyte CLint [15]: 5 µL/min/1e6 cells
- logD [16]: 3.9
SMILES: N#Cc1cc2[nH]nc(C3CC3)c2c(-c2ccc(OC(F)F)cc2)n1

- hepatocyte CLint [15]: < 1 µL/min/1e6 cells
- logD [16]: 2
SMILES: Cn1cc(-c2cc3[nH]nc(C4CC4)c3n(-c3ccc(OC(F)F)cc3)c2=O)ccc1=O

- hepatocyte CLint [15]: 7 µL/min/1e6 cells
- logD [16]: 4
SMILES: COc1ccc(-c2cc3[nH]nc(C4CC4)c3n(-c3ccc(OC(F)F)cc3)c2=O)cc1

- hepatocyte CLint [15]: < 1 µL/min/1e6 cells
- logD [16]: 3.1
SMILES: Cn1nnc2ccc(-c3cc4[nH]nc(C5CC5)c4n(-c4ccc(OC(F)F)cc4)c3=O)cc21

- Kd [24]: 170 nM
SMILES: CN(C)CCc1nnc2cc(-c3ccccc3)c3cc(Cl)ccc3n12

- hepatocyte CLint [15]: 3 µL/min/1e6 cells
- logD [16]: 3.5
SMILES: COc1ccc(-c2cc3[nH]nc(C4CC4)c3n(-c3ccc(OC(F)F)cc3)c2=O)cn1

- hepatocyte CLint [15]: < 1 µL/min/1e6 cells
- logD [16]: 2.2
SMILES: Cc1ccc(-n2c(=O)c(-c3ccc4nn(C)cc4c3)cc3[nH]nc(C4CC4)c32)cn1

- microsomal CLint [23]: < 3 µL/min/mg
- hepatocyte CLint [15]: < 1 µL/min/1e6 cells
- logD [16]: 1.6
SMILES: [O-][n+]1ccc2[nH]nc(C3CC3)c2c1-c1ccc(OC(F)F)cc1

- hepatocyte CLint [15]: 35 µL/min/1e6 cells
- logD [16]: 2.2
SMILES: Cn1cc2cc(-c3cc4[nH]nc(C5CC5)c4n(-c4ccc(CO)cc4)c3=O)ccc2n1

- hepatocyte CLint [15]: < 1 µL/min/1e6 cells
- logD [16]: 1.6
SMILES: Cc1ncc(-n2c(=O)c(-c3ccc4nn(C)cc4c3)cc3[nH]nc(C4CC4)c32)cn1

- hepatocyte CLint [15]: < 1 µL/min/1e6 cells
- logD [16]: 3
SMILES: Cc1n[nH]c2cc(-c3ccc4nn(C)cc4c3)c(=O)n(-c3ccc(OC(F)F)cc3)c12

- hepatocyte CLint [15]: < 1 µL/min/1e6 cells
- logD [16]: 3.1
SMILES: CCc1n[nH]c2cc(-c3ccc4nn(C)cc4c3)c(=O)n(-c3ccc(OC(F)F)cc3)c12

Second part, the molecule before the results:

SMILES: Cn1cc2cc(-c3cc4[nH]nc(C5CC5)c4n(-c4ccc(OC(F)F)cc4)c3=O)ccc2n1
- fraction unbound [1]: 0.032
- Vdss [2]: 5.5 L/kg
- solubility [3]: 3.3 µM (≈ 1.48 µg/mL)
- Papp at 10 µM [4]: 9.4 ×10⁻⁶ cm/s
- fraction unbound [5]: 0.03
- fraction unbound [6]: 0.006
- hepatocyte CLint [7]: 1.4 µL/min/1e6 cells
- GI50 (cells): 79.4 nM
- Activity (HCT116-MTAP null): Active
- half-life [8]: 3 h
- fraction unbound [9]: 0.12
- inhibition in vivo at 20 mg/kg (animal or person [10]): > 90%
- solubility [11]: 70.4 µM (≈ 31.5 µg/mL)
- inhibition in vivo at 20 mg/kg (animal or person [12]): > 90%
- half-life [13]: 6.3 h
- Vdss [14]: 0.8 L/kg
- hepatocyte CLint [15]: < 1 µL/min/1e6 cells
- logD [16]: 3.4
- fraction unbound at 24 h [17]: 0.029
- bioavailability [18]: 100%
- bioavailability [19]: 100%
- solubility [20]: 11.2 µM (≈ 5.01 µg/mL)
- Kp uu [21]: 0.03
- solubility at 24 h [22]: 3.2 µM (≈ 1.43 µg/mL)
- Activity (NCI-H441): Active

SMILES: Cn1cc2cc(-c3cc4[nH]nc(C5CC5)c4n(-c4ccc(OC(F)F)cn4)c3=O)ccc2n1
- hepatocyte CLint [15]: 2 µL/min/1e6 cells
- logD [16]: 2.5

SMILES: FC(F)Oc1ccc(-c2nccc3[nH]nc(C4CC4)c23)cc1
- microsomal CLint [23]: 54 µL/min/mg
- hepatocyte CLint [15]: 20 µL/min/1e6 cells
- logD [16]: 3.8

SMILES: CCc1ccc(-n2c(=O)c(-c3ccc4nn(C)cc4c3)cc3[nH]nc(C4CC4)c32)cn1
- hepatocyte CLint [15]: 19 µL/min/1e6 cells
- logD [16]: 2.4

SMILES: O=c1ccc2[nH]nc(C3CC3)c2n1-c1ccc(OC(F)F)cc1
- microsomal CLint [23]: < 3 µL/min/mg
- hepatocyte CLint [15]: 1 µL/min/1e6 cells
- logD [16]: 2.1

SMILES: Cn1cc2cc(-c3cc4[nH]nc(C5CC5)c4n(-c4ccc(CCO)cc4)c3=O)ccc2n1
- hepatocyte CLint [15]: 4 µL/min/1e6 cells
- logD [16]: 2.3

SMILES: Cc1ccc(-n2c(=O)c(-c3ccc4nn(C)cc4c3)cc3[nH]nc(C4CC4)c32)nc1
- hepatocyte CLint [15]: 5 µL/min/1e6 cells
- logD [16]: 2.2

SMILES: Cn1cc2cc(-c3cc4[nH]nc(C5CC5)c4n(-c4ccc(OC(F)F)nc4)c3=O)ccc2n1
- hepatocyte CLint [15]: < 1 µL/min/1e6 cells
- logD [16]: 3

SMILES: Cn1cc2cc(-c3cc4[nH]nc(C5CC5)c4n(-c4ccc(Cl)cc4)c3=O)ccc2n1
- hepatocyte CLint [15]: 5 µL/min/1e6 cells
- logD [16]: 3.4

SMILES: COc1ccc(-n2cc3cnc(NCC(F)(F)F)nc3c(-c3ccc(Br)cc3)c2=O)cc1
- fold induction at 10 µM (PXR): 25

SMILES: COc1ccc(-c2nccc3[nH]nc(C4CC4)c23)cc1
- microsomal CLint [23]: 89 µL/min/mg
- hepatocyte CLint [15]: 38 µL/min/1e6 cells
- logD [16]: 3.3

SMILES: O=c1c(-c2ccc(O)cc2)cc2[nH]nc(C3CC3)c2n1-c1ccc(OC(F)F)cc1
- hepatocyte CLint [15]: 2 µL/min/1e6 cells
- logD [16]: 3.4

SMILES: Cn1cc2ccc(-c3cc4[nH]nc(C5CC5)c4n(-c4ccc(OC(F)F)cc4)c3=O)cc2n1
- hepatocyte CLint [15]: 25 µL/min/1e6 cells
- logD [16]: 3.4

SMILES: COc1ccc(-c2cc3[nH]nc(C4CC4)c3n(-c3ccc(OC(F)F)cc3)c2=O)nc1
- hepatocyte CLint [15]: 7 µL/min/1e6 cells
- logD [16]: 3.4

SMILES: C[C@@H](O)c1ccc(-n2c(=O)c(-c3ccc4nn(C)cc4c3)cc3[nH]nc(C4CC4)c32)cc1
- hepatocyte CLint [15]: 5 µL/min/1e6 cells
- logD [16]: 2.4

SMILES: COc1ccc(-c2c3c(C4CC4)n[nH]c3cc[n+]2[O-])cc1
- microsomal CLint [23]: < 3 µL/min/mg
- hepatocyte CLint [15]: < 1 µL/min/1e6 cells
- logD [16]: 1.3

SMILES: COc1ccc(-c2cc3[nH]nc(C4CC4)c3c(-c3ccc(OC(F)F)cc3)n2)cc1
- microsomal CLint [23]: 21 µL/min/mg
- hepatocyte CLint [15]: 26 µL/min/1e6 cells
- logD [16]: > 4.5

SMILES: Cn1cc2cc(-c3cc4[nH]nc([C@@H]5CCOC5)c4n(-c4ccc(OC(F)F)cc4)c3=O)ccc2n1
- hepatocyte CLint [15]: 4 µL/min/1e6 cells
- logD [16]: 2.5

Reference: ChEMBL document CHEMBL5518219, “Development of a Series of Pyrrolopyridone MAT2A Inhibitors” (J Med Chem, 2024)
